Measured values taken from patent US7109193B2, “Tricyclic diazepines tocolytic oxytocin receptor antagonists” (Wyeth, priority 2001, dated 2006).

biological target: T1, human vasopressin V2 receptor subtype (Homo sapiens, UniProt P30518); test: Vasopressin binding in Chinese Hamster Ovary cell membranes expressing human vasopressin V2 subtype receptors; conditions: 100 nM, CHO cell membranes, [3H]arginine vasopressin, values without parentheses
T1 construct: host or cells: CHO cells (pZeoSV vector)
T1 sequence (P30518 whole entry): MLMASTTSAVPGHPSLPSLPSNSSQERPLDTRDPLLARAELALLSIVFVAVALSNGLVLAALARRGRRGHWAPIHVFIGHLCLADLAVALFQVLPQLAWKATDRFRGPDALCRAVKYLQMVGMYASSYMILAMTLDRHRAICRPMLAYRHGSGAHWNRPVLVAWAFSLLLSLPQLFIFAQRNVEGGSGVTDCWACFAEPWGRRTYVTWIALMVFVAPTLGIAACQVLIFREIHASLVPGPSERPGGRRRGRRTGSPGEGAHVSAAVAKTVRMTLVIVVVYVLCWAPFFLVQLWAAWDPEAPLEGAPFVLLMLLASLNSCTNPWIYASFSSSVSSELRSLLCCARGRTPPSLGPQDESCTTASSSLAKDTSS
Procedure, shortened: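 Radioligand displacement on membranes from CHO cells stably expressing human V2 receptor, 25 to 50 μg protein/well, in 50 mM Tris-HCl pH 7.4 with MgCl2, BSA and protease inhibitors. [^3H]arginine vasopressin (8 nM working solution) incubated 60 min at room temperature; bound label measured by filtration and scintillation counting.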

Compound | inhibition at 0.1 µM [%]
COc1cc(C(=O)N2Cc3ccc(C(=O)N(C)CCCN(C)C)n3Cc3ccccc32)ccc1-c1ccccc1C [Example 105, N-[3-(Dimethylamino)propyl]-10-[(2-methoxy-2′-methyl[1,1′-biphenyl]-4-yl)carbonyl]-N-methyl-10,11-dihydro-5H-pyrrolo[2,1-c][1,4]benzodiazepine-3-carboxamide] | 18
COc1cc(C(=O)N2Cc3ccc(C(=O)N(C)CCCN(C)C)n3Cc3ccccc32)ccc1-c1cccc2ccccc12 [Example 106, N-[3-(Dimethylamino)propyl]-10-[3-methoxy-4-(1-naphthyl)benzoyl]-N-methyl-10,11-dihydro-5H-pyrrolo[2,1-c][1,4]benzodiazepine-3-carboxamide] | 34

same assay, conditions: CHO cell membranes, [3H]arginine vasopressin, values in parentheses

Compound | IC50 [nM]
Cc1cc(C(=O)N2Cc3ccc(C(=O)N4CC[C@@H](N(C)C)C4)n3Cc3ccccc32)ccc1-c1ccccc1C(F)(F)F [Example 271, [(3R)-3-(Dimethylamino)pyrrolidinyl](10-{[2-methyl-2′-(trifluoromethyl)[1,1′-biphenyl]-4-yl]carbonyl}-10,11-dihydro-5H-pyrrolo[2,1-c][1,4]benzodiazepin-3-yl)methanone] | 1920
COc1ccccc1-c1ccc(C(=O)N2Cc3ccc(C(=O)N4CCN(C)CC4)n3Cc3ccccc32)cc1 [Example 48, {10-[(2′-Methoxy[1,1′-biphenyl]-4-yl)carbonyl]-10,11-dihydro-5H-pyrrolo[2,1-c][1,4]benzodiazepin-3-yl}(4-methyl-1-piperazinyl)methanone] | 700
COc1ccccc1-c1ccc(C(=O)N2Cc3ccc(C(=O)N4CCN(CCN5CCOCC5)CC4)n3Cc3ccccc32)cc1C [Example 206, {10-[(2′-Methoxy-2-methyl[1,1′-biphenyl]-4-yl)carbonyl]-10,11-dihydro-5H-pyrrolo[2,1-c][1,4]benzodiazepin-3-yl}{4-[2-(4-morpholinyl)ethyl]-1-piperazinyl}methanone] | 190
C=CCN1CCN(C(=O)c2ccc3n2Cc2ccccc2N(C(=O)c2cc(Cl)c(-c4ccccc4C)cc2OC)C3)CC1 [Example 219, (4-Allyl-1-piperazinyl){10-[(6-chloro-3-methoxy-2′-methyl[1,1′-biphenyl]-4-yl)carbonyl]-10,11-dihydro-5H-pyrrolo[2,1-c][1,4]benzodiazepin-3-yl}methanone] | 1320
COc1cccc(-c2cc(OC)c(C(=O)N3Cc4ccc(C(=O)N(C)CCN(C)C)n4Cc4ccccc43)cc2Cl)c1 [Example 87, 10-[(6-Chloro-3,3′-dimethoxy[1,1′-biphenyl]-4-yl)carbonyl]-N-[2-(dimethylamino)ethyl]-N-methyl-10,11-dihydro-5H-pyrrolo[2,1-c][1,4]benzodiazepine-3-carboxamide] | 2180
COc1ccccc1-c1ccc(C(=O)N2Cc3ccc(C(=O)N4CCN(CCN5CCOCC5)CC4)n3Cc3ccccc32)cc1 [Example 207, {10-[(2′-Methoxy[1,1′-biphenyl]-4-yl)carbonyl]-10,11-dihydro-5H-pyrrolo[2,1-c][1,4]benzodiazepin-3-yl}{4-[2-(4-morpholinyl)ethyl]-1-piperazinyl}methanone] | 601
COc1cc(-c2ccccc2C)c(Cl)cc1C(=O)N1Cc2ccc(C(=O)N3CCCN(C)CC3)n2Cc2ccccc21 [Example 60, {10-[(6-Chloro-3-methoxy-2′-methyl[1,1′-biphenyl]-4-yl)carbonyl]-10,11-dihydro-5H-pyrrolo[2,1-c][1,4]benzodiazepin-3-yl}(4-methyl-1,4-diazepan-1-yl)methanone] | 1200
Cc1cc(C(=O)N2Cc3ccc(C(=O)N(C)CCN(C)C)n3Cc3ccccc32)ccc1-c1ccccc1C(F)(F)F [Example 85, N-[2-(Dimethylamino)ethyl]-N-methyl-10-{[2-methyl-2′-(trifluoromethyl)[1,1′-biphenyl]-4-yl]carbonyl}-10,11-dihydro-5H-pyrrolo[2,1-c][1,4]benzodiazepine-3-carboxamide] | 3130
